How the values were obtained:
[1] = system: R13.2 (DNA, aptamer) TGTACCGTCTGAGCGATTCGTACTGTGGGCACCAATCGTACCCAATACTTGCGAATCAGCCAGTCAGTGTTAAGGAGTGC; assay: competitive elution of labelled DNA from bromacil beads, fluorescence; settings: 100 mM NaCl, 2 mM MgCl2, 20 mM Tris-HCl, 0.01% methanol, 1 μM free compound
[2] = system: R13.2 (DNA, aptamer) TGTACCGTCTGAGCGATTCGTACTGTGGGCACCAATCGTACCCAATACTTGCGAATCAGCCAGTCAGTGTTAAGGAGTGC; assay: fluorescence saturation binding on magnetic beads; settings: 100 mM NaCl, 2 mM MgCl2; immobilised compound (biotinylated bromacil on streptavidin beads); 20 mM Tris-HCl; 5 min

Cn1ccc(=O)[nH]c1=O
binding ([1]; 0.28 ± 0.09 RFU against 0.51 for bromacil): weak

CCC(C)n1c(=O)[nH]c(C)c(Br)c1=O (stereo not shown)
Kd [2]: 9.6 ± 7.8 nM | binding ([1]; 100 nM DNA, 0.51 ± 0.16 RFU (blank -0.0045)): yes

CCNc1nc(Cl)nc(NC(C)C)n1
binding ([1]; 0.22 ± 0.15 RFU against 0.51 for bromacil): weak

Reference: PMC4225842 (2014)
